Assay results as given in patent publication US20230174523A1, “BENZENESULFONAMIDE DERIVATIVES AS TRAP1 MODULATORS AND USES THEREOF” (Amathus Therapeutics, Inc., priority 2020, published 2023).

Tested on: primary rat TH+ dopaminergic neurons
Test: Survival, neurite network, CytC release and aSyn aggregation of TH+ dopaminergic neurons injured with MPP+
Type: cell-based
Method: Rat dopaminergic neurons were cultured as described by Visanji et al., 2008. Briefly, pregnant female rat of 15 days of gestation are sacrificed using a deep anesthesia with CO2 chamber and a cervical dislocation. The midbrains obtained from 15-day-old rat embryos are dissected under a microscope. The embryonic midbrains are removed and placed in ice-cold medium of Leibovitz (L15) containing 2% of Penicillin-Streptomycin (PS) and 1% of bovine serum albumin (BSA). The ventral portion of the mesencephalic flexure, a region of the developing brain rich in dopaminergic neurons, is used for the cell preparations.
The midbrains are dissociated by trypsinisation for 20 min at 37° C. (solution at a final concentration of 0.05% trypsin and 0.02% EDTA). […] Viable cells are counted in a Neubauer cytometer using the trypan blue exclusion test. […] Six wells per condition are assessed.
For each condition, 20 pictures at 10× magnification (plate 1) or 30 pictures at 20× magnification (representing the whole well area) were automatically taken using ImageXpress®. […] The following read-outs were measured: Analysis of total number of TH neurons (TH positive neuron number), Analysis of the ROS into TH positive neurons, Analysis of caspase 3 positive TH neurons, and Analysis of total neurite network of TH positive neurons (in μm).
All values are expressed as mean+/−SEM (standard error of the mean). […]

Cc1nn(C)c2sc(C(=O)Nc3ccc(F)c(S(=O)(=O)Nc4ccc(Cl)cc4)c3)cc12 [Compound 705]
neurite network of TH+ dopaminergic neurons (injury with MPP+ (4 μM, 24 h), FIG. 8): protection of the neurite network | neurite network of TH+ dopaminergic neurons (injury with MPP+ (4 μM, 48 h), FIG. 11): protection of neurite network
